The values below come from patent publication US7081460B2, “Quinazoline and quinazoline-like compounds for the treatment of integrin-mediated disorders” (Ortho-McNeil Pharmaceutical, Inc., priority 2001, dated 2006).

One test deals with T1, Human αvβ3 (Homo sapiens, UniProt P05106+P06756).
T1 construct: purchased Chemicon International Inc., Temecula, Calif
Briefly: In vitro solid phase purified αvβ3 binding assay (vitronectin/αvβ3). The note with it: isolated human αvβ3, 5 nM vitronectin; read-out: αvβ3 Binding IC50. On the procedure:
(§1) In vitro Solid Phase Purified αvβ3 Binding Assay The vitronectin/αvβ3 binding assay methods were derived from Mehta et al. (Biochem J. 1998, 330, 861). Human αvβ3 (Chemicon International Inc., Temecula, Calif.), at a concentration of 1 μg/ml dissolved in Tris buffer (20 mM Tris, 1 mM CaCl2, 1 mM MgCl2, 10 μM MnCl2, 150 mM NaCl), was immobilized on Immulon 96 well plates (Dynex Technologies, Chantilly, Va.) overnight at 4° C. Plates were washed and treated with blocking buffer (3% BSA in Tris buffer) for 2 h at 37 C. Plates were then rinsed 2 times in Tris buffer containing 0.3% BSA and 0.2% Tween20 (polyoxyethylenesorbitan monolaurate). Five minutes prior to the addition of 5 nM vitronectin (Sigma, St. Louis, Mo.), compounds of the invention were added to wells in duplicate. Each plate included c-RGDfV as an internal control. Following a 3 hour incubation at 37° C., plates were washed 5 times in assay buffer. An anti-human vitronectin IgG rabbit polyclonal antibody (Calbiochem, San Diego, Calif.) was added (1:2000) and plates were incubated for 1 hour at room temperature. VectaStain ABC peroxidase kit reagents (Vector Laboratories, Burlingame, Calif.) employing a biotin labeled anti-rabbit IgG, were utilized for detection of bound antibody. Plates were read at 490 nm on a Molecular Devices (Sunnyvale, Calif.) microplate reader. […] The plate was covered and incubated overnight at 4° C. The GPIIb/IIIa solution was discarded and 150 μl of 5% BSA was added and incubated at RT for 1–3 h. The plate was washed extensively with modified Tyrodes buffer. Biotinylated fibrinogen (25 μl/well) at 2× final concentration was added to the wells that contain the test compounds (25 μl/well). The plate was covered and incubated at RT for 2–4 h. Twenty minutes prior to incubation completion, one drop of Reagent A (VectaStain ABC Horse Radish Peroxidase kit, Vector Laboratories, Inc.) and one drop Reagent B were added with mixing to 5 mL modified Tyrodes buffer mix and let stand. The ligand solution was discarded and the plate washed (5×200 μl/well) with modified Tyrodes buffer. Vecta Stain HRP-Biotin-Avidin reagent (50 μl/well, as prepared above) was added and incubated at RT for 15 min. The Vecta Stain solution was discarded and the wells washed (5×200 μl/well) with modified Tyrodes buffer. Developing buffer (10 mL of 50 mM citrate/phosphate buffer @ pH 5.3, 6 mg o-phenylenediamine, 6 μl 30% H2O2; 50 μl/well) was added and incubated at rt for 3–5 min, and then 2 N H2SO4 (50 μl/well) was added. The absorbance was read at 490 nm.

The target of a further test is GPIIb/IIIa (Homo sapiens, UniProt P05106+P08514). In words: In vitro solid phase purified glycoprotein IIb/IIIa binding assay (biotinylated fibrinogen). The following applies: RGD-affinity purified GPIIb/IIIa, biotinylated fibrinogen; read-out: GPIIb/IIIa Binding IC50. As for the experimental part: as §1
Chain of GPIIb/IIIa (P08514 32-887 limits assumed): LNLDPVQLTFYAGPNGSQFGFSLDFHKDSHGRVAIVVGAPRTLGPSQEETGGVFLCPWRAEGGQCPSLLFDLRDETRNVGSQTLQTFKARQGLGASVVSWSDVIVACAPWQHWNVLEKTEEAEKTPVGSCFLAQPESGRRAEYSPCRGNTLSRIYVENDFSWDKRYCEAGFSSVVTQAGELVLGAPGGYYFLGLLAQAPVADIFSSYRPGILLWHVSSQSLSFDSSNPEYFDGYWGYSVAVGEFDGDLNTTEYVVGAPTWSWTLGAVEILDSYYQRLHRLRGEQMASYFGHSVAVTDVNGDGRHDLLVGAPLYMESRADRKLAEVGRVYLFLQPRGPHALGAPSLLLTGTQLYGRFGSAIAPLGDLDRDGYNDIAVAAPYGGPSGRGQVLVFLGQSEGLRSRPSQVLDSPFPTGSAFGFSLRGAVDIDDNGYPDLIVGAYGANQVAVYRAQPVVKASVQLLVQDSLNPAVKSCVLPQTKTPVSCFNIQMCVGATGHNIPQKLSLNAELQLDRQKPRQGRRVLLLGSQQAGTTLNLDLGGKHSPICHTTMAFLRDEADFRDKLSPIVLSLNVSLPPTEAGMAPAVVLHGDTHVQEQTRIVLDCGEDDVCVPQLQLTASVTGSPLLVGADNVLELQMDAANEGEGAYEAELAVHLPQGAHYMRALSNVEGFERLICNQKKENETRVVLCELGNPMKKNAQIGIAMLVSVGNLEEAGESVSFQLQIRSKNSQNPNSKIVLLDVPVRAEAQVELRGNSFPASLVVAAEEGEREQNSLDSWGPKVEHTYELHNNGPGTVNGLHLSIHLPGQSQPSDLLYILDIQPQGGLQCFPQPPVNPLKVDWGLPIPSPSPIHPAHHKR
Chain of GPIIb/IIIa (P08514 891-1039 partner limits assumed): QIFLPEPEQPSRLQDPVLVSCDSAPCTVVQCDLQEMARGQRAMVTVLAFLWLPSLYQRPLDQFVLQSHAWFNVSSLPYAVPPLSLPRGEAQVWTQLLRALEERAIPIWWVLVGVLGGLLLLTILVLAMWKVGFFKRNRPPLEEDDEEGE
Chain of GPIIb/IIIa (P05106 27-788): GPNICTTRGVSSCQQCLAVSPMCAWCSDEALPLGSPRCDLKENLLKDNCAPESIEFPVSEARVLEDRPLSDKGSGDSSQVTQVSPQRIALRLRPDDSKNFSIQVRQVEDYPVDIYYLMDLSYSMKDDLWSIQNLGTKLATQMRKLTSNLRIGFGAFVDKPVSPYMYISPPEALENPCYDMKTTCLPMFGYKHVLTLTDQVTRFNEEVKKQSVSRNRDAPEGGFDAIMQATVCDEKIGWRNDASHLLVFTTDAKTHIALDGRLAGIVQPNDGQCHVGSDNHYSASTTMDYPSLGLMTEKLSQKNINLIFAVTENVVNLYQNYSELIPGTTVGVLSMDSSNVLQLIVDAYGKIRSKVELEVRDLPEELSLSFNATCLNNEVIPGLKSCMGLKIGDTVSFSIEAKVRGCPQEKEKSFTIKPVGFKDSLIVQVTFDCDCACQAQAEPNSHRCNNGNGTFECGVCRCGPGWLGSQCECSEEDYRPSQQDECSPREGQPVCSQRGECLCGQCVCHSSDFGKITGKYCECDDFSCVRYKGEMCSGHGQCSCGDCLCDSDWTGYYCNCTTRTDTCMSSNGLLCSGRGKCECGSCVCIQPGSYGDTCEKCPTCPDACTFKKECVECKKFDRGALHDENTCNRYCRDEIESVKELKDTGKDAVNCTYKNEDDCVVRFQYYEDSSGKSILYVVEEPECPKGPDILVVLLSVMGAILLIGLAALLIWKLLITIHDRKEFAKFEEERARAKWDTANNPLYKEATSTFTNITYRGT

T1 sequence (P06756 31-889 limits assumed): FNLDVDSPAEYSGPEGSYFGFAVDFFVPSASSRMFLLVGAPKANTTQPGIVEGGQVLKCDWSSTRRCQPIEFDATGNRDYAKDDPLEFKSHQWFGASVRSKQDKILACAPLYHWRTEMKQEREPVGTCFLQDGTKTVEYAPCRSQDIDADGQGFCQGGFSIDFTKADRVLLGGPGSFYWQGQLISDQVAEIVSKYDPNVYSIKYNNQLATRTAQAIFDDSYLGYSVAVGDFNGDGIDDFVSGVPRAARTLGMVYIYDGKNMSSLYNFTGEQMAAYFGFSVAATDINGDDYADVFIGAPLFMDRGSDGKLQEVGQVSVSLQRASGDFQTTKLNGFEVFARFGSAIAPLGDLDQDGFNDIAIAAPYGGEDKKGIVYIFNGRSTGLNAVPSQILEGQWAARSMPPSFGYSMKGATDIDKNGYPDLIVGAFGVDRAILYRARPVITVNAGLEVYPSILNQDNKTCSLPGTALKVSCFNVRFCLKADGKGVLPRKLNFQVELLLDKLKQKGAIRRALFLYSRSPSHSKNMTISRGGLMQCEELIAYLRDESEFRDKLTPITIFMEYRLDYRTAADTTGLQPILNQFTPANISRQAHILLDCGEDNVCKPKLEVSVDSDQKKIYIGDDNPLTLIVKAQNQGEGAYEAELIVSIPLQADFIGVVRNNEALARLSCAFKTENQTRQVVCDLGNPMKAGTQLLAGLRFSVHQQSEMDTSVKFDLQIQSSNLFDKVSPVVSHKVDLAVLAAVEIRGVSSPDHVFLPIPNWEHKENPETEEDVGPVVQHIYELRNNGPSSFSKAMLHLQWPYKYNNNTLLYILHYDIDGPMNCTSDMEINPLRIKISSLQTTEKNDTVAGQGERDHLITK
T1 sequence (P06756 891-1048 partner limits assumed): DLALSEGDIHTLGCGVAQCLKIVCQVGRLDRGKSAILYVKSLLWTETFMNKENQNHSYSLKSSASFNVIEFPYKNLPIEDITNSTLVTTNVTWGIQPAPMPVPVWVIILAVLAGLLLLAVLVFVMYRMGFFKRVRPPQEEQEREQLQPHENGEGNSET
T1 sequence (P05106 27-788): as the sequence (P05106 27-788) above

On to `COc1cccc([C@@H](CC(=O)O)c2nc3ccc(/C=C/CNc4ccccn4)cc3c(=O)n2C)c1` [Compound 18, (βR)-3,4-dihydro-β-(3-methoxyphenyl)-3-methyl-4-oxo-6-[(1E)-3-(2-pyridinylamino)-1-propenyl]-2-quinazolinepropanoic Acid], for which the IC50 on Human αvβ3 is 18000 nM; at GPIIb/IIIa, greater than 50000 nM.

Turning to `NC/C=C/c1ccc2nc(C[C@H](NC(=O)OCc3ccccc3)C(=O)O)[nH]c(=O)c2c1` [Compound 19, 6-[(1E)-3-amino-1-propenyl]-(αS)-3,4-dihydro-4-oxo-α-[[(phenylmethoxy)carbonyl]amino]-2-quinazolinepropanoic acid], the IC50 at Human αvβ3 was greater than 5000 nM; at GPIIb/IIIa, 450 nM.

For `O=C(N[C@@H](Cc1nc2ccc(C#CCNC3=NCCN3)cc2c(=O)[nH]1)C(=O)O)OCc1ccccc1` [Compound 20, 6-[3-[(4,5-dihydro-1H-imidazol-2-yl)amino]-1-propynyl]-(αS)-3,4-dihydro-4-oxo-α-[[(phenylmethoxy)carbonyl]amino]-2-quinazolinepropanoic acid], the IC50 on Human αvβ3 is greater than 5000 nM; at GPIIb/IIIa it was 660 nM.

In the case of `O=C(O)[C@H](Cc1nc2ccc(/C=C/CNC3=NCCN3)cc2c(=O)[nH]1)NS(=O)(=O)c1c(Cl)cc(Cl)cc1Cl` [Compound 21, 6-[(1E)-3-[(4,5-dihydro-1H-imidazol-2-yl)amino]-1-propenyl]-(αS)-3,4-dihydro-4-oxo-α-[[(2,4,6-trichlorophenyl)sulfonyl]amino]-2-quinazolinepropanoic acid], the IC50 at Human αvβ3 is greater than 50 nM; at GPIIb/IIIa, 1600 nM.

`CN(C)c1cccc2c(S(=O)(=O)N[C@@H](Cc3nc4ccc(/C=C/CNC5=NCCN5)cc4c(=O)[nH]3)C(=O)O)cccc12` [Compound 22, 6-[(1E)-3-[(4,5-dihydro-1H-imidazol-2-yl)amino]-1-propenyl]-α-[[[5-(dimethylamino)-1-naphthalenyl]sulfonyl]amino]-(αS)-3,4-dihydro-4-oxo-2-quinazolinepropanoic acid]: the IC50 was greater than 500 nM at Human αvβ3 and 1200 nM at GPIIb/IIIa.

Take `O=C(O)[C@H](Cc1nc2ccc(/C=C/CNc3ccccn3)cc2c(=O)[nH]1)NS(=O)(=O)c1ccc2ccccc2c1` [Compound 24, (αS)-3,4-dihydro-α-[(2-naphthalenylsulfonyl)amino]-4-oxo-6-[(1E)-3-(2-pyridinylamino)-1-propenyl]-2-quinazolinepropanoic acid]: the IC50 was 23 nM at Human αvβ3 and 1400 nM at GPIIb/IIIa.

Take `O=C(O)[C@H](Cc1nc2ccc(/C=C/CNc3ccccn3)cc2c(=O)[nH]1)NS(=O)(=O)c1ccc(C(F)(F)F)cc1` [Compound 25, (αS)-3,4-dihydro-4-oxo-6-[(1E)-3-(2-pyridinylamino)-1-propenyl]-α-[[[4-(trifluoromethyl)phenyl]sulfonyl]amino]-2-quinazolinepropanoic acid]: the IC50 on Human αvβ3 was 72 nM; on GPIIb/IIIa, 9600 nM.

Consider `COc1ccc(S(=O)(=O)N[C@@H](Cc2nc3ccc(/C=C/CNc4ccccn4)cc3c(=O)[nH]2)C(=O)O)cc1` [Compound 26, (αS)-3,4-dihydro-α-[[(4-methoxyphenyl)sulfonyl]amino]-4-oxo-6-[(1E)-3-(2-pyridinylamino)-1-propenyl]-2-quinazolinepropanoic acid], for which the IC50 at Human αvβ3 came to 15 nM; at GPIIb/IIIa it was 1300 nM.

On to `Cc1c(C)c(C)c(S(=O)(=O)N[C@@H](Cc2nc3ccc(/C=C/CN4CCCC4=N)cc3c(=O)[nH]2)C(=O)O)c(C)c1C` [Compound 27, (αS)-3,4-dihydro-6-[(1E)-3-(2-imino-1-pyrrolidinyl)-1-propenyl]-4-oxo-α-[[(2,3,4,5,6-pentamethylphenyl)sulfonyl]amino]-2-quinazolinepropanoic acid], for which the IC50 on Human αvβ3 was 120 nM; at GPIIb/IIIa it was 19 nM.

As for `O=C(O)[C@H](Cc1nc2ccc(/C=C/CNc3ccccn3)cc2c(=O)[nH]1)NS(=O)(=O)c1ccc(S(=O)(=O)c2ccccc2)s1` [Compound 28, (αS)-3,4-dihydro-4-oxo-α-[[[5-(phenylsulfonyl)-2-thienyl]sulfonyl]amino]-6-[(1E)-3-(2-pyridinylamino)-1-propenyl]-2-quinazolinepropanoic acid], the IC50 is greater than 300 nM on Human αvβ3 and 2200 nM at GPIIb/IIIa.

Regarding `Cc1cccc(Cl)c1S(=O)(=O)N[C@@H](Cc1nc2ccc(/C=C/CNc3ccccn3)cc2c(=O)[nH]1)C(=O)O` [Compound 29, α-[[(2-chloro-6-methylphenyl)sulfonyl]amino]-(αS)-3,4-dihydro-4-oxo-6-[(1E)-3-(2-pyridinylamino)-1-propenyl]-2-quinazolinepropanoic acid], the IC50 is 38 nM on Human αvβ3 and 240 nM on GPIIb/IIIa.

For `Cc1c(C)c(C)c(S(=O)(=O)N[C@@H](Cc2nc3ccc(/C=C/CNc4nccn4C)cc3c(=O)[nH]2)C(=O)O)c(C)c1C` [Compound 30, (αS)-3,4-dihydro-6-[(1E)-3-[(1-methyl-1H-imidazol-2-yl)amino]-1-propenyl]-4-oxo-α-[[(2,3,4,5,6-pentamethylphenyl)sulfonyl]amino]-2-quinazolinepropanoic acid], the results for the IC50 at Human αvβ3 and at GPIIb/IIIa were 200 nM and 83 nM, respectively.

As to `O=C(O)[C@H](Cc1nc2ccc(/C=C/CNc3ccccn3)cc2c(=O)[nH]1)NS(=O)(=O)c1ccc(-c2ccon2)s1` [Compound 31, (αS)-3,4-dihydro-α-[[[5-(3-isoxazolyl)-2-thienyl]sulfonyl]amino]-4-oxo-6-[(1E)-3-(2-pyridinylamino)-1-propenyl]-2-quinazolinepropanoic acid], the IC50 on Human αvβ3 was determined as 70 nM; at GPIIb/IIIa it was 1800 nM.

For `COc1ccc(OC)c(S(=O)(=O)N[C@@H](Cc2nc3ccc(/C=C/CNc4ccccn4)cc3c(=O)[nH]2)C(=O)O)c1` [Compound 32, α-[[(2,5-dimethoxyphenyl)sulfonyl]amino]-(αS)-3,4-dihydro-4-oxo-6-[(1E)-3-(2-pyridinylamino)-1-propenyl]-2-quinazolinepropanoic acid], the IC50 at Human αvβ3 stood at 21 nM; on GPIIb/IIIa it was 3900 nM.

`COc1ccc(S(=O)(=O)N[C@@H](Cc2nc3ccc(/C=C/CNc4ccccn4)cc3c(=O)[nH]2)C(=O)O)cc1OC` [Compound 33, α-[[(3,4-dimethoxyphenyl)sulfonyl]amino]-(αS)-3,4-dihydro-4-oxo-6-[(1E)-3-(2-pyridinylamino)-1-propenyl]-2-quinazolinepropanoic acid]: the results for the IC50 at Human αvβ3 and on GPIIb/IIIa were 13 nM and 1100 nM, respectively.

Turning to `O=C(O)[C@H](Cc1nc2ccc(/C=C/CNc3ccccn3)cc2c(=O)[nH]1)NS(=O)(=O)c1cccs1` [Compound 34, (αS)-3,4-dihydro-4-oxo-6-[(1E)-3-(2-pyridinylamino)-1-propenyl]-α-[(2-thienylsulfonyl)amino]-2-quinazolinepropanoic acid], the results for the IC50 on Human αvβ3 and at GPIIb/IIIa were 83 nM and 1600 nM, respectively.

On to `O=C(O)[C@H](Cc1nc2ccc(/C=C/CNc3ccccn3)cc2c(=O)[nH]1)NS(=O)(=O)c1ccc(OC(F)(F)F)cc1` [Compound 35, (αS)-3,4-dihydro-4-oxo-6-[(1E)-3-(2-pyridinylamino)-1-propenyl]-α-[[[4-(trifluoromethoxy)phenyl]sulfonyl]amino]-2-quinazolinepropanoic acid], for which the IC50 worked out at 59 nM at Human αvβ3 and 4800 nM at GPIIb/IIIa.

Consider `Cc1nn(C)c(Cl)c1S(=O)(=O)N[C@@H](Cc1nc2ccc(/C=C/CNc3ccccn3)cc2c(=O)[nH]1)C(=O)O` [Compound 36, α-[[(5-chloro-1,3-dimethyl-1H-pyrazol-4-yl)sulfonyl]amino]-(αS)-3,4-dihydro-4-oxo-6-[(1E)-3-(2-pyridinylamino)-1-propenyl]-2-quinazolinepropanoic acid], for which the IC50 was 25 nM at Human αvβ3 and 2700 nM at GPIIb/IIIa.

With `Cc1noc(C)c1S(=O)(=O)N[C@@H](Cc1nc2ccc(/C=C/CNc3ccccn3)cc2c(=O)[nH]1)C(=O)O` [Compound 37, α-[[(3,5-dimethyl-4-isoxazolyl)sulfonyl]amino]-(αS)-3,4-dihydro-4-oxo-6-[(1E)-3-(2-pyridinylamino)-1-propenyl]-2-quinazolinepropanoic acid], the IC50 turned out to be 54 nM at Human αvβ3 and 700 nM on GPIIb/IIIa.
